From the NIST ThermoML archive (doi:10.1021/je060271a)

Settings: 283.15 K, Liquid, Vibrating tube method

CCCCCC(=O)OCC(COC(=O)CCCCC)(COC(=O)CCCCC)COC(=O)CCCCC [pentaerythritol tetrahexanoate]
Settings | mass density [kg/m3]
22895 kPa | 1017
22911 kPa | 1016.9
22928 kPa | 1017
22946 kPa | 1017
22963 kPa | 1017
22982 kPa | 1016.9
22997 kPa | 1017.1
23012 kPa | 1016.9
23030 kPa | 1017.2
23045 kPa | 1016.9
23060 kPa | 1017
23075 kPa | 1017
23093 kPa | 1017
23108 kPa | 1017.1
23124 kPa | 1017.1
23142 kPa | 1017.1
23157 kPa | 1017
23175 kPa | 1017
23191 kPa | 1017.1
23206 kPa | 1017.1
23221 kPa | 1017.2
23240 kPa | 1017
23255 kPa | 1017.2
23274 kPa | 1017.3
23290 kPa | 1017.1
23305 kPa | 1017
23323 kPa | 1017.2
23339 kPa | 1017.2
23354 kPa | 1017.2
23370 kPa | 1017.3
23389 kPa | 1017
23405 kPa | 1017.1
23422 kPa | 1017.2
23437 kPa | 1017.2
23456 kPa | 1017.3
23472 kPa | 1017.2
23488 kPa | 1017.3
23507 kPa | 1017.3
23523 kPa | 1017.3
23539 kPa | 1017.3
23555 kPa | 1017.3
23574 kPa | 1017.4
23590 kPa | 1017.3
23607 kPa | 1017.3
23627 kPa | 1017.4
23640 kPa | 1017.5
23659 kPa | 1017.4
23675 kPa | 1017.3
23691 kPa | 1017.3
23711 kPa | 1017.4
23726 kPa | 1017.3
23746 kPa | 1017.4
23762 kPa | 1017.4
23778 kPa | 1017.3
23794 kPa | 1017.3
23813 kPa | 1017.5
23830 kPa | 1017.5
23849 kPa | 1017.4
23866 kPa | 1017.5
23883 kPa | 1017.5
23902 kPa | 1017.5
23919 kPa | 1017.4
23935 kPa | 1017.5
23951 kPa | 1017.5
23971 kPa | 1017.5
23988 kPa | 1017.5
24004 kPa | 1017.5
24024 kPa | 1017.5
24041 kPa | 1017.6
24061 kPa | 1017.6
24078 kPa | 1017.6
24095 kPa | 1017.6
24111 kPa | 1017.6
24131 kPa | 1017.6
24148 kPa | 1017.7
24185 kPa | 1017.6
24202 kPa | 1017.5
24222 kPa | 1017.8
24239 kPa | 1017.6
24272 kPa | 1017.8
24327 kPa | 1017.7
24364 kPa | 1017.7
24382 kPa | 1017.7
24399 kPa | 1017.7
24419 kPa | 1017.6
24436 kPa | 1017.7
24457 kPa | 1017.8
24474 kPa | 1017.8
24492 kPa | 1017.9
24509 kPa | 1017.7
24530 kPa | 1017.9
24548 kPa | 1017.9
24565 kPa | 1017.9
24586 kPa | 1017.7
24603 kPa | 1017.7
24620 kPa | 1017.8
24641 kPa | 1018
24659 kPa | 1017.8
24676 kPa | 1017.9
24697 kPa | 1017.9
24715 kPa | 1017.9
24733 kPa | 1017.8
24754 kPa | 1017.8
24772 kPa | 1018
24789 kPa | 1018
24810 kPa | 1017.9
24828 kPa | 1017.9
24846 kPa | 1017.9
24867 kPa | 1017.9
24884 kPa | 1018
24903 kPa | 1017.8
24924 kPa | 1018
24942 kPa | 1018
24960 kPa | 1018.1
24981 kPa | 1018
25000 kPa | 1018
25018 kPa | 1018
25037 kPa | 1018.1
25059 kPa | 1018.2
25077 kPa | 1018
25095 kPa | 1018.1
25117 kPa | 1018.2
25135 kPa | 1018.2
25154 kPa | 1018.1
25175 kPa | 1018.1
25194 kPa | 1018.1
25212 kPa | 1018.1
25234 kPa | 1018.2
25253 kPa | 1018.2
25272 kPa | 1018.1
25290 kPa | 1018.1
25309 kPa | 1018.2
25331 kPa | 1018.2
25350 kPa | 1018.2
25372 kPa | 1018.2
25391 kPa | 1018.3
25410 kPa | 1018.2
25428 kPa | 1018.2
25451 kPa | 1018.2
25470 kPa | 1018.3
25489 kPa | 1018.2
25511 kPa | 1018.1
25530 kPa | 1018.3
25553 kPa | 1018.2
25572 kPa | 1018.3
